Drawing on US11918592B2, “Inhibitors of cyclin dependent kinase 7 (CDK7)” (Syros Pharmaceuticals, Inc., priority 2018, dated 2024), this text covers IC50 for six compounds.

The subject of one test is COV318 cells. In words: Inhibition of cell proliferation, CyQUANT Direct, COV318. Type of test: cell-based. As to conditions: Homo sapiens; COV318 ovarian cancer cells, 72-hour; read-out: COV 318 proliferation calculated IC50.
A further test deals with CDK9/Cyclin T1 complex (Homo sapiens, UniProt P50750). In words: CDK9 kinase inhibition assay (Caliper/LabChip EZ Reader).
Test [1] has as its target CDK7/Cyclin H/MAT1 complex (Homo sapiens, UniProt P50613). In words: CDK7 kinase inhibition assay (Caliper/LabChip EZ Reader).
Description: (§1) Compounds of the invention were assayed for inhibition of CDK7, CDK9, CDK12, and CDK2 activity at Biortus Biosciences (Jiangyin, Jiangsu Province, P.R. of China) using kinase assays for each CDK developed with a Caliper/LabChip EZ Reader (Perkin Elmer, Waltham, MA).
(§2) Furthermore, the CDK9 inhibition assay used CDK9/Cyclin T1 complex (8 nM) and “5-FAM-CDK9tide” peptide substrate (2 μM, synthesized fluorophore-labeled peptide with the following sequence: 5-FAM-GSRTPMY-NH2 (SEQ ID NO:2) where 5-FAM is defined above and NH2 signifies a C-terminal amide) with 10 mM MgCl2 in the buffer composition listed above. The CDK12 inhibition assay used CDK12 (aa686-1082)/Cyclin K complex (50 nM) and “5-FAM-CDK9tide” (2 μM) as defined above, with 2 mM MgCl2 in the buffer composition above. Additionally, the CDK2 inhibition assay used CDK2/Cyclin E1 complex (0.5 nM) and “5-FAM-CDK7tide” (2 μM) as defined above, with 2 mM MgCl2 in the buffer composition listed above.
(§3) The incubation period at 27° C. for each CDK inhibition assay was chosen such that the fraction of phosphorylated peptide product produced in each assay, relative to the total peptide concentration, was approximately 20% (±5%) for the uninhibited kinase (35 min. for CDK7, 35 min. for CDK2, 3 hr. for CDK12, 15 min. for CDK9).
In another test the target is CDK2/Cyclin E1 complex (Homo sapiens, UniProt P24941). In words: CDK2 kinase inhibition assay (Caliper/LabChip EZ Reader).
The subject of a further test is MB453 cells. In words: Inhibition of cell proliferation, CyQUANT Direct, MB453. Type of test: cell-based, human. The following applies: Homo sapiens; MB453 triple negative breast cancer cells, 72-hour; read-out: MB 453 proliferation calculated IC50.
Another test deals with COV504 cells. In words: Inhibition of cell proliferation, CyQUANT Direct, COV504. Type of test: cell-based. The following applies: Homo sapiens; COV504 ovarian cancer cells, 72-hour; read-out: COV 504 proliferation calculated IC50.
The target of test [2] is CDK12 (aa686-1082)/Cyclin K complex (Homo sapiens, UniProt Q9NYV4). In words: CDK12 kinase inhibition assay (Caliper/LabChip EZ Reader).
Description: as §1, §2, §3
The next test has as its system HCC70 cells. Kind of test: Inhibition of cell proliferation, CyQUANT Direct, HCC70. The test is classed as cell-based, human. As to conditions: Homo sapiens; HCC70 triple negative breast cancer cells, 72-hour; read-out: HCC 70 proliferation calculated IC50.

CDK7/Cyclin H/MAT1 complex, sequence (P50613 whole entry): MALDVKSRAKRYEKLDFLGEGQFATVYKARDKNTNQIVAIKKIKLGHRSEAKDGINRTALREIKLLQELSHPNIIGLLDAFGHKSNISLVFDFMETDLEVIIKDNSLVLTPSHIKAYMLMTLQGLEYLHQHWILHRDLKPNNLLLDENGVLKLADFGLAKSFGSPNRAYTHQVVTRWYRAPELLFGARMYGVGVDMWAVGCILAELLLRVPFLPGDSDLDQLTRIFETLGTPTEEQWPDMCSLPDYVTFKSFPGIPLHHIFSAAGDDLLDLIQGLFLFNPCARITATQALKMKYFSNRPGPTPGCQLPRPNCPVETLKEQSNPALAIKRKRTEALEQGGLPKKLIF
CDK7/Cyclin H/MAT1 complex, sequence (P51946 whole entry partner): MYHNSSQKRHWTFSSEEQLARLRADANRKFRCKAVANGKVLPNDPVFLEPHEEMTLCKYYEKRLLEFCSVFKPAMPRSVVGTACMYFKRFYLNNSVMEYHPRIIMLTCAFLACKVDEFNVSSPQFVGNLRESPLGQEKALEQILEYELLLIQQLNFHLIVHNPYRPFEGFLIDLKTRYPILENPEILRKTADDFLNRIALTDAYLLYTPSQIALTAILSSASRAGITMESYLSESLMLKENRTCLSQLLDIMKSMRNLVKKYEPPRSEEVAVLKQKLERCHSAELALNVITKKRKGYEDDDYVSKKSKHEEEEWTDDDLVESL
CDK7/Cyclin H/MAT1 complex, sequence (P51948 whole entry partner): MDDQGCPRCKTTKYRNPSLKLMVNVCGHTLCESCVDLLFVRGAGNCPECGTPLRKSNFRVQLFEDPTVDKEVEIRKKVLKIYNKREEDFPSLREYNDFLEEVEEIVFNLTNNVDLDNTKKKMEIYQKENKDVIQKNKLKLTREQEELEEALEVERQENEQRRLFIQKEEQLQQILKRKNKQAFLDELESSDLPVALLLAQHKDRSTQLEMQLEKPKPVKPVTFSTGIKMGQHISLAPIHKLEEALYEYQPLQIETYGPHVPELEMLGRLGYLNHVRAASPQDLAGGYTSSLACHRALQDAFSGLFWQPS
CDK12 (aa686-1082)/Cyclin K complex, sequence (Q9NYV4 686-1082): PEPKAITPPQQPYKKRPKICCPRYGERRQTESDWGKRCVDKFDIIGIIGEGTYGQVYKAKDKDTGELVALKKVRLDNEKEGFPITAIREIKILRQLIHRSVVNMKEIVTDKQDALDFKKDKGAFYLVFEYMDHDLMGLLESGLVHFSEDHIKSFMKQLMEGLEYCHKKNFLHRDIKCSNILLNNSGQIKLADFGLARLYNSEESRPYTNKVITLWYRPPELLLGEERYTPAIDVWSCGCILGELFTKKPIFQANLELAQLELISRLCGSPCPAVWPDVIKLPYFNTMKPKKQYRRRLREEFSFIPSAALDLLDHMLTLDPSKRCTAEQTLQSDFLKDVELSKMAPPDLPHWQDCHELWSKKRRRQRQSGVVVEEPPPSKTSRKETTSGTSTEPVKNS
CDK12 (aa686-1082)/Cyclin K complex, sequence (O75909 whole entry partner, the tested form may be a part): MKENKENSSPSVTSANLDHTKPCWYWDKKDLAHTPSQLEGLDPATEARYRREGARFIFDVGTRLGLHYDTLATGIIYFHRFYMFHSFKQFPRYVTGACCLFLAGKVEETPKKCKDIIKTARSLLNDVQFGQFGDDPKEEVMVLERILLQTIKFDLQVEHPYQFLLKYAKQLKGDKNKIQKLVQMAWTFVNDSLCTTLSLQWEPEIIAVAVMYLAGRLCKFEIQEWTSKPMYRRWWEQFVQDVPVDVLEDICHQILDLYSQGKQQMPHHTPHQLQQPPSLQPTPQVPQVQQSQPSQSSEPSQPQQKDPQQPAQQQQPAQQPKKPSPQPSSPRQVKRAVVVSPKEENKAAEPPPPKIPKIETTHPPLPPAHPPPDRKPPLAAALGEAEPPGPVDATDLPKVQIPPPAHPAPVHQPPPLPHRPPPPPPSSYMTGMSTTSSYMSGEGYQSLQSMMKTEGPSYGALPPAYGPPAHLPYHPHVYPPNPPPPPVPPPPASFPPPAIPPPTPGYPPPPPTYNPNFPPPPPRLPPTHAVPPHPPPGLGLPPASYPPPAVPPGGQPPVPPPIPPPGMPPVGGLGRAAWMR
CDK9/Cyclin T1 complex, sequence (P50750 whole entry): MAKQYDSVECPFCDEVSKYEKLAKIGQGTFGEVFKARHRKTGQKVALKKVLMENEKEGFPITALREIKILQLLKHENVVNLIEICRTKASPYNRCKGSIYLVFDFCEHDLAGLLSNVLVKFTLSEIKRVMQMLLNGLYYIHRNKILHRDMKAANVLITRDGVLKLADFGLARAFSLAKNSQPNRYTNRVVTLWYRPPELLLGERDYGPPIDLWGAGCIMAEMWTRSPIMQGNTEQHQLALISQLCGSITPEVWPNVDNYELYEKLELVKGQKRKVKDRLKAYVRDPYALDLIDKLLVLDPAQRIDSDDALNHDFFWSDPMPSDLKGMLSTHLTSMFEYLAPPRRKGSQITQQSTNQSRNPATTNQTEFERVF
CDK9/Cyclin T1 complex, sequence (O60563 whole entry partner): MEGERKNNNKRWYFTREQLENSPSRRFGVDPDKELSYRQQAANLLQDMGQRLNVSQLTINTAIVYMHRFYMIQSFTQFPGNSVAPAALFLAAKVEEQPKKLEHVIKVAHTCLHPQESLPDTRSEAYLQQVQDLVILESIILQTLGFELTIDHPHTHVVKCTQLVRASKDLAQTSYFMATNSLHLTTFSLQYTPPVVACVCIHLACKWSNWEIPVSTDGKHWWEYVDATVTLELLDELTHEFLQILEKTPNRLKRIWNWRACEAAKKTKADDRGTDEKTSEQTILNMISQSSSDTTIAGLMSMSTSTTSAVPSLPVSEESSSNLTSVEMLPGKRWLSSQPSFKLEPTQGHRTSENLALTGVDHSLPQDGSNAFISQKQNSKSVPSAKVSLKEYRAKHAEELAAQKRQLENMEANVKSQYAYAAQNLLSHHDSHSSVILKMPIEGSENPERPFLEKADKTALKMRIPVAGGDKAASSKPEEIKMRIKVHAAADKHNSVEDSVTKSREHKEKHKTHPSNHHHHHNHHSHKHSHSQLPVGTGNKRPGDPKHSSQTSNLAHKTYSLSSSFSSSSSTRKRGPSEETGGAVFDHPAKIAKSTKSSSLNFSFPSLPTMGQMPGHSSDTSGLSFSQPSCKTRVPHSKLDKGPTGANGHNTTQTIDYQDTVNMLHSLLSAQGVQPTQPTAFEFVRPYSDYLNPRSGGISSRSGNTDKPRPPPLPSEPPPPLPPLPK
Description for CDK2/Cyclin E1 complex: as §1, §2, §3

`CCN[C@H]1CC[C@@H]1Nc1ncc(C(F)(F)F)c(-c2c[nH]c3nc(-c4c(C)noc4C)ccc23)n1` [Compound 160, (1S,2S)—N2-[4-[6-(3,5-dimethylisoxazol-4-yl)-1H-pyrrolo[2,3-b]pyridin-3-yl]-5-(trifluoromethyl)pyrimidin-2-yl]-N1-ethyl-cyclobutane-1,2-diamine]: the IC50 in the test on COV318 cells is less than 0.1 µM; at CDK9/Cyclin T1 complex it was greater than 0.5 µM; in test [1], less than 0.03 µM; on CDK2/Cyclin E1 complex it was greater than 0.5 µM; with MB453 cells, less than 0.1 µM; with COV504 cells, less than 0.1 µM. Further, the figures for the IC50 (in test [2]; with HCC70 cells) were greater than 0.5 µM and less than 0.1 µM, respectively.
In the case of `CP(C)(=O)c1c(C#N)ccc2c(-c3nc(N[C@H]4CCC[C@@H]4N)ncc3C(F)(F)F)c[nH]c12` [Compound 161, 3-[2-[[(1S,2S)-2-aminocyclopentyl]amino]-5-(trifluoromethyl)pyrimidin-4-yl]-7-dimethylphosphoryl-1H-indole-6-carbonitrile], the IC50 in the test with COV318 cells was 0.1 to 0.5 µM; against CDK9/Cyclin T1 complex, greater than 0.5 µM; in test [1], less than 0.03 µM; against CDK2/Cyclin E1 complex it was greater than 0.5 µM; with MB453 cells it was less than 0.1 µM; in the test with COV504 cells, less than 0.1 µM. Also, the results for the IC50 (in test [2]; in the test with HCC70 cells) were greater than 0.5 µM and less than 0.1 µM, respectively.
Turning to `Cc1noc(C)c1-c1ccc2c(-c3nc(N[C@H]4CCC[C@H]4N4CC(O)C4)ncc3C(F)(F)F)c[nH]c2n1` [Compound 163, 1-[(1R,2S)-2-[[4-[6-(3,5-dimethylisoxazol-4-yl)-1H-pyrrolo[2,3-b]pyridin-3-yl]-5-(trifluoromethyl)pyrimidin-2-yl]amino]cyclopentyl]azetidin-3-ol], the IC50 in the test with COV318 cells is greater than 2 µM; against CDK9/Cyclin T1 complex it was greater than 0.5 µM; in test [1], 0.03 to 0.1 µM; at CDK2/Cyclin E1 complex, greater than 0.5 µM; with MB453 cells it was 0.5 to 2 µM; with COV504 cells, greater than 2 µM. The IC50 in test [2] was greater than 0.5 µM; with HCC70 cells, greater than 2 µM.
Turning to `COC1CN([C@H]2CCC[C@@H]2Nc2ncc(C(F)(F)F)c(-c3c[nH]c4nc(-c5c(C)noc5C)ccc34)n2)C1` [Compound 164, 4-[6-(3,5-dimethylisoxazol-4-yl)-1H-pyrrolo[2,3-b]pyridin-3-yl]-N-[(1S,2S)-2-(3-methoxyazetidin-1-yl)cyclopentyl]-5-(trifluoromethyl)pyrimidin-2-amine], the IC50 in the test with COV318 cells was greater than 2 µM; against CDK9/Cyclin T1 complex, greater than 0.5 µM; in test [1], less than 0.03 µM; against CDK2/Cyclin E1 complex it was greater than 0.5 µM; in the test with MB453 cells it was 0.1 to 0.5 µM; in the test on COV504 cells, 0.1 to 0.5 µM. Also, the IC50 is greater than 0.5 µM in test [2] and 0.1 to 0.5 µM with HCC70 cells.
On to `COC1CN([C@@H]2CCC[C@@H]2Nc2ncc(C(F)(F)F)c(-c3c[nH]c4nc(-c5c(C)noc5C)ccc34)n2)C1` [Compound 165, 4-[6-(3,5-dimethylisoxazol-4-yl)-1H-pyrrolo[2,3-b]pyridin-3-yl]-N-[(1S,2R)-2-(3-methoxyazetidin-1-yl)cyclopentyl]-5-(trifluoromethyl)pyrimidin-2-amine], for which the IC50 was greater than 2 µM in the test on COV318 cells; greater than 0.5 µM against CDK9/Cyclin T1 complex; 0.03 to 0.1 µM in test [1]; greater than 0.5 µM at CDK2/Cyclin E1 complex; 0.5 to 2 µM in the test on MB453 cells; greater than 2 µM in the test on COV504 cells. Besides, the results for the IC50 (in test [2]; with HCC70 cells) were greater than 0.5 µM and greater than 2 µM, respectively.
Take `Cc1noc(C)c1-c1ccc2c(-c3nc(N[C@H]4CCC[C@@H]4N4CC(F)(F)C4)ncc3C(F)(F)F)c[nH]c2n1` [Compound 166, N-[(1S,2S)-2-(3,3-difluoroazetidin-1-yl)cyclopentyl]-4-[6-(3,5-dimethylisoxazol-4-yl)-1H-pyrrolo[2,3-b]pyridin-3-yl]-5-(trifluoromethyl)pyrimidin-2-amine]: the IC50 in the test with COV318 cells is greater than 2 µM; against CDK9/Cyclin T1 complex it was greater than 0.5 µM; in test [1] it was greater than 0.5 µM; on CDK2/Cyclin E1 complex, greater than 0.5 µM; in the test with MB453 cells, greater than 2 µM; in the test with COV504 cells, greater than 2 µM. Moreover, the IC50 in test [2] is greater than 0.5 µM; in the test on HCC70 cells it was greater than 2 µM.
